Read-outs that look alike come from different tables or passages of the source.
What was measured:
[1] = 100 mg BID, solid tumor patients; cited from earlier work
MM.1S cells = test: Cytolytic activity of BCMA CAR T cells against target cells pre-incubated with PF-03084014; assay type: cell-based, human; settings: MM.1S target cells pre-incubated with PF-03084014 for 24 hours, then 24 hours co-culture (FIG. 25B)
Protocol: (§1) In a separate experiment, cytolytic activities of BCMA CAR-T cells were evaluated after the target multiple myeloma cells were first pre-incubated with PF-03084014. FIG. 25A depicts the cell surface expression level of BCMA on the multiple myeloma cell line MM.1S and the BCMA negative control cell line […] after a 24-hour culture in the presence of increasing concentrations of the gamma secretase inhibitor PF-03084014. The data is shown as mean fluorescence intensity (MFI) values of BCMA. FIG. 25B depicts the cytolytic activity of BCMA CAR T cells against MM.1S cells previously treated with PF-03084014 for 24 hours. In the cytolytic assay, BCMA CAR T cells and target cells were co-cultured at different effector to target (E:T) ratios for 24 hours and residual target cell viability was measured using bioluminescence. Results are shown as mean+/−SEM.

BCMA CAR-T cells = test: Target-dependent BCMA CAR-T cell proliferation in the presence of PF-03084014 (co-culture with REH-BCMA cells); assay type: cell-based, human; settings: Day 5, up to the highest concentration (FIG. 23)
Description: A BCMA-negative acute lymphocytic leukemia cell line (REH) was genetically modified to overexpress BCMA with the use of a lentiviral vector encoding the human BCMA protein under regulatory control of the EF1alpha promoter (REH-BCMA cells). BCMA-overexpressing cells co-expressing luciferase and green fluorescent protein (GFP) were then created by transducing the cells with a Luc2AGFP/Blasticidin lentiviral vector following the manufacturer's recommendations. The exemplary BCMA CAR tested in the experiments comprises the VH amino acid sequence of SEQ ID NO: 33 and VL amino acid sequence of SEQ ID NO: 34). The BCMA CAR-T cells were generated and cryopreserved as previously described (Sommer et al., Molecular Therapy 2019, 27 (6): 1126-1138), thawed, and used in the assays as follows. Briefly, 5×10^5 CAR^+ T cells were co-cultured with 2×10^6 REH-BCMA cells in 2.5 mL of target cell medium (RPMI with L-glutamine, 10% FBS) without IL-2 using G-Rex 24-well plates. PF-03084014 was added to cells at increasing concentrations whereas the control wells received vehicle. […] On Day 5, cells were counted and the percentage of residual target cells and CAR-T cells were determined by flow cytometry analysis. […] Target-cell dependent proliferation/persistence in the presence or absence of PF-03084014 was determined by dividing the total number of CAR^+ cells by the starting cell number (5×10^5).

[2] = system: MM.1S, Molp-8 and REH-BCMA cells; test: In vitro cytolytic activity of BCMA CAR-T cells in the presence of PF-03084014 (luciferase); assay type: cell-based, human; settings: PF-03084014 0.01 μM to 10 μM added during 24 hour co-culture, E:T 1:3, 1:1, 3:1 (FIG. 24)
Protocol: The multiple myeloma cell lines MM.1S and Molp-8 and the BCMA-overexpressing REH cell line (REH-BCMA cells) were used in these assays. The target cell lines have been modified to constitutively express the luciferase gene which allows assessment of cell viability via luminescence. The cytotoxic activity of BCMA CAR-T cells was determined by measuring the reduction of luminescence signal from live target cells after 24 hour co-culture with BCMA CAR-T cells at increasing effector to target (E:T) ratios (1:3, 1:1, 3:1). Briefly, 2×10^4 luciferase-expressing target cells were co-cultured with BCMA CAR-T cells at defined E:T ratios in target cell culture medium (RPMI with L-glutamine, 10% FBS) without IL-2. The GSI PF-03084014 was added to wells at increasing concentrations (0.01 μM to 10 μM) and cells were cultured in a humidified CO2 incubator set to 37° C. for 24 hours. Following the incubation period, 100 μL of Bright-GLO reagent (Promega) were added and luminescence was read on a luminometer (Spectramax; Molecular Devices). Relative luminescence units (RLU) were converted to percentage of lysed target cells using the formula 100×[1−(RLUtest/RLUcontrol)]. Untreated target cells were used to determine RLU control.

BCMA-negative REH cells = test: Surface BCMA by flow cytometry in BCMA-negative REH control cells exposed to PF-03084014; assay type: cell-based, human; settings: REH negative control cell line, 4-hour treatment
Protocol: The BCMA-expressing multiple myeloma cell lines MM.1S and Molp-8 (ATCC), and the BCMA-negative acute lymphocytic leukemia cell line REH (ATCC) were expanded in RPMI medium containing L-glutamine and 10% FBS in a humidified CO2 incubator set to 37 degrees. The gamma secretase inhibitor (GSI) PF-03084014 (nirogacestat in the hydrobromide salt form, Sigma-Aldrich, #PZ0298) was diluted in H2O at mg/mL and further diluted in cell culture medium as needed. Cells were cultured in the presence of increasing concentrations of PF-03084014 or vehicle (control) in a humidified CO2 incubator set to 37° C. for 4 hours or 24 hours. Cells were then harvested by centrifugation for 5 min at 400×g and stained with a phycoerythrin (PE)-labeled anti-human BCMA antibody (BioLegend, Cat #357504) for 30 min at 4° C. Samples were analyzed by flow cytometry using a Cytoflex flow cytometer (Beckman Coulter) and expression levels of BCMA (mean fluorescence intensity, MFI) were determined using FlowJo version 10.4.1. Fold-change in surface BCMA was calculated as the MFI value of GSI-treated cells divided by the MFI value of cells receiving vehicle control. Maximal (100%) inhibition of gamma-secretase activity was defined as the maximal fold-change in surface BCMA. […] The data was then fitted using a non-linear regression (four-parameter logistic curve) function and EC50 was calculated using GraphPad.

[3] = Phase 1 dose-finding study (A8641014) of nirogacestat, minimum concentration; assay type: in vivo, human; settings: 100 mg BID, solid tumor patients; conversion of ng/mL value
Protocol: See, e.g., FIG. 22C. […] A dose of 100 mg BID nirogacestat is expected to maintain serum concentrations of nirogacestat at or above the levels required to prevent the cleavage of BCMA by gamma secretase, thereby leading to reduced soluble BCMA and increased membrane-bound BCMA.

gamma secretase [4] = test: Surface BCMA by flow cytometry / inhibition of gamma secretase activity in MM.1S cells exposed to PF-03084014; assay type: cell-based, human
Protocol: (§2) The BCMA-expressing multiple myeloma cell lines MM.1S and Molp-8 (ATCC), and the BCMA-negative acute lymphocytic leukemia cell line REH (ATCC) were expanded in RPMI medium containing L-glutamine and 10% FBS in a humidified CO2 incubator set to 37 degrees. The gamma secretase inhibitor (GSI) PF-03084014 (nirogacestat in the hydrobromide salt form, Sigma-Aldrich, #PZ0298) was diluted in H2O at mg/mL and further diluted in cell culture medium as needed. Cells were cultured in the presence of increasing concentrations of PF-03084014 or vehicle (control) in a humidified CO2 incubator set to 37° C. for 4 hours or 24 hours. Cells were then harvested by centrifugation for 5 min at 400×g and stained with a phycoerythrin (PE)-labeled anti-human BCMA antibody (BioLegend, Cat #357504) for 30 min at 4° C. Samples were analyzed by flow cytometry using a Cytoflex flow cytometer (Beckman Coulter) and expression levels of BCMA (mean fluorescence intensity, MFI) were determined using FlowJo version 10.4.1. Fold-change in surface BCMA was calculated as the MFI value of GSI-treated cells divided by the MFI value of cells receiving vehicle control. Maximal (100%) inhibition of gamma-secretase activity was defined as the maximal fold-change in surface BCMA. To obtain half-maximal effective concentration (EC50) values, gMFI was plotted as a function of the logarithm of the concentration of PF-03084014. The data was then fitted using a non-linear regression (four-parameter logistic curve) function and EC50 was calculated using GraphPad.
as §1

gamma secretase [5] = test: Surface BCMA by flow cytometry / inhibition of gamma secretase activity in Molp-8 cells exposed to PF-03084014; assay type: cell-based, human
Protocol: as §2

[6] = 4-hour treatment, dose-dependent (FIG. 22A)

## CCC[C@H](N[C@H]1CCc2cc(F)cc(F)c2C1)C(=O)Nc1cn(C(C)(C)CNCC(C)(C)C)cn1 [PF-03084014, nirogacestat]
[1]
  Minimum concentration (Cmin): 232 ng/mL
MM.1S cells
  Effect on cytolytic activity of BCMA CAR T cells: enhanced cytolytic effect
BCMA CAR-T cells
  Effect on target-dependent BCMA CAR-T cell expansion: did not negatively affect CAR-T cell expansion
[2]
  Effect on target cell killing by BCMA CAR-T cells: enhanced target cell killing was not observed
BCMA-negative REH cells
  Dose-dependent increase of BCMA on the cell surface: not seen
[3]
  Minimum concentration (Cmin): approximately 480 nM
Gamma secretase [4]; [6]
  Levels of BCMA on the cell surface: increased levels of BCMA detected on the cell surface
Gamma secretase [4]; 24 hours incubation (FIG. 25A)
  Levels of BCMA on multiple myeloma cells (MFI): increased levels of BCMA
Gamma secretase [4]; 24 hours treatment (FIG. 22C)
  Inhibition of gamma secretase activity: dose-dependent inhibition of gamma secretase activity
Gamma secretase [4]; 24 hours treatment, flow cytometry of surface BCMA, read-out: EC50 on gamma secretase (surface BCMA) determined using the MM.1S cell line
  EC50: 0.12 nM
Gamma secretase [5]; [6]
  Levels of BCMA on the cell surface: increased levels of BCMA detected on the cell surface
Gamma secretase [5]; 24 hours treatment (FIG. 22C)
  Inhibition of gamma secretase activity: dose-dependent inhibition of gamma secretase activity
Gamma secretase [5]; 24 hours treatment, flow cytometry of surface BCMA, read-out: EC50 on gamma secretase (surface BCMA) determined using the Molp-8 cell line
  EC50: 22.4 nM

Source: patent publication US20230112444A1, “COMBINATION THERAPIES OF CHIMERIC ANTIGEN RECEPTORS TARGETING B-CELL […] AND GAMMA SECRETASE INHIBITORS” (priority 2020, published 2023)
